Test results as given in patent publication US20260325541A1, “BENZGALANTAMINE FOR TREATING PERSISTENT POST-CONCUSSION SYMPTOMS” (Alpha Cognition Inc., priority 2023, published 2026).
Structures can show the parent of a compound that is named as a salt.

What was measured:
E. coli ATCC 8739 = assay: USP 51 antimicrobial effectiveness test, E. coli; assay type: cell-based, Escherichia coli; conditions: for CFU/mL: initial 9.1 × 10^5 CFU/mL, 22.5±2.5 °C; for Log Reduction: initial log10 6.0
Experimental: (§1) As shown in WO2022236396A1, in order to assess the anti-microbial properties of ALPHA-1062, the USP (US Pharmacopeia) Chapter 51 Preservative Challenge Test (USP 51) was employed. The USP 51 is a common method used to gauge preservative effectiveness. Much like a Preservative Challenge Screen, it is used to evaluate the effect of preservatives in cosmetics, personal care products, and drug products. Preservatives are typically antimicrobial ingredients that are added to aqueous product formulations to help maintain the safety of the product by inhibiting the growth and reducing the number of microbial contaminants.
(§2) In the context of the present invention, ALPHA-1062 (in the form of the gluconate salt) was assessed in place of (as) a preservative. No additional preservative was added to the ALPHA-1062 gluconate preparation, rather an anti-microbial effect of the agent itself (ALPHA-1062) was assessed. ALPHA-1062 is therefore the anti-microbial agent in the assay and experiments described below.
(§3) The USP 51 challenge test utilizes 5 microorganisms (3 bacteria and 2 fungi) for challenge testing. Each of the microorganisms are known strains of pathogenic microorganisms and they represent a wide range of microbial physiologies.
(§4) Cultures of the following microorganisms were applied, as per standard guidelines for USP 51: Candida albicans (ATCC No. 10231), Aspergillus brasiliensis (ATCC No. 16404), Escherichia coli (ATCC No. 8739), Pseudomonas aeruginosa (ATCC No. 9027), and Staphylococcus aureus (ATCC No. 6538). […]
(§5) The initial concentration of viable microorganisms in each test preparation was estimated based on the concentration of microorganisms in each of the standardized inoculums, as determined by the plate-count method.
(§6) The inoculated containers were incubated at 22.5±2.5 °C and each container was sampled at the appropriate intervals, as specified in Table 3. Any changes observed in the appearance of the culture was recorded at these intervals. By using the plate-count procedure, the number of CFU present in each test preparation was determined for the applicable intervals.
(§7) An inactivator (neutralizer) of the specific antimicrobial was incorporated in the plate count or in the appropriate dilution prepared for plating. These conditions were determined in the validation study for that sample based upon the conditions of media and microbial recovery incubation times listed in Table 2. Using the calculated concentrations of CFU per mL present at the start of the test, the change in log 10 values of the concentration of CFU per mL for each microorganism was calculated at the applicable test intervals, and the changes were expressed in terms of log reductions.

P. aeruginosa ATCC 9027 = assay: USP 51 antimicrobial effectiveness test, P. aeruginosa; assay type: cell-based, Pseudomonas aeruginosa; conditions: for CFU/mL: initial 2.9 × 10^5 CFU/mL, 22.5±2.5 °C; for Log Reduction: initial log10 5.5
Experimental: as §1, §2, §3, §4, §5, §6, §7

S. aureus ATCC 6538 = assay: USP 51 antimicrobial effectiveness test, S. aureus; assay type: cell-based, Staphylococcus aureus; conditions: for CFU/mL: initial 4.0 × 10^5 CFU/mL, 22.5±2.5 °C; for Log Reduction: initial log10 5.6
Experimental: as §1, §2, §3, §4, §5, §6, §7

C. albicans ATCC 10231 = assay: USP 51 antimicrobial effectiveness test, C. albicans; assay type: cell-based, Candida albicans; conditions: for CFU/mL: initial 6.7 × 10^5 CFU/mL, 22.5±2.5 °C; for Log Reduction: initial log10 5.8
Experimental: as §1, §2, §3, §4, §5, §6, §7

[1] = system: A. brasiliensis ATCC 16404; assay: USP 51 antimicrobial effectiveness test, A. brasiliensis; assay type: cell-based, Aspergillus brasiliensis; conditions: for CFU/mL: initial 2.2 × 10^5 CFU/mL, 22.5±2.5 °C; for Log Reduction: initial log10 5.3
Experimental: as §1, §2, §3, §4, §5, §6, §7

[2] = system: all 5 organisms tested in the USP 51; assay: USP 51 overall assessment against Category 2 criteria; assay type: cell-based; conditions: USP 51, Category 2 criteria, 14 and 28 days
Experimental: as §1
In the context of the present invention, ALPHA-1062 (in the form of the gluconate salt) was assessed in place of (as) a preservative. No additional preservative was added to the ALPHA-1062 gluconate preparation, rather an anti-microbial effect of the agent itself (ALPHA-1062) was assessed. […]
as §5
The inoculated containers were incubated at 22.5±2.5 °C and each container was sampled at the appropriate intervals, as specified in Table 3. Any changes observed in the appearance of the culture was recorded at these intervals. […]

[3] = system: patients with chronic TBI; conditions: oral, cited from earlier work; for adverse effects: chronic TBI patients; for TBI-related symptoms: patient reported, not placebo controlled
[4] = Body weight / overt toxicity over the 35-day study; assay type: in vivo, male Wistar rats
Text: Young adult (2-3 months) male Wistar rats were subjected to a moderate TBI induced by controlled cortical impact (CCI). Animal models of TBI including the CCI model and functional tests have been described in detail in peer reviewed publications (Xiong et al., 2013, Nat Rev Neurosci.; Zhang et al., 2016, J Neurosurg.; Zhang et al., 2016, Neurochem Int.; Zhang et al., 2021, J Neurotrauma). Injury consisted of a single impact at 4.0 m/see, 2.5 mm deformation to the left parietal cortex. In addition, a group of animals was left healthy/not injured to serve as a healthy control.
The animals were divided into 3 groups: • 1) TBI+Vehicle (purified water, n=10) • 2) TBI+ALPHA-1062 (4.5 mg/kg) (n=10) • 3) Healthy/not injured and not treated (Sham surgery) (n=10)
The substance used in this study was ALPHA-1062 at 4.5 mg/kg. As control treatment (vehicle) purified water was administered intranasally (IN). The ALPHA-1062 and the control treatment were initiated 2 hours after injury and continued twice daily (with a 6-hour interval) for 35 consecutive days.
Data were evaluated for normality applying the following statistical analyses: Data transformation was considered if the data was abnormal. The data was analyzed with GraphPad Prism Software 9.0. All data herein is presented as the mean±standard deviation (SD) and were analyzed with one-way analysis of variance (ANOVA) or two-way ANOVA (treatment x time) followed by post hoc Tukey's multiple comparison test (more than two groups). Differences between means are considered statistically significant when p is <0.05.

[5] = system: mice after repeated blast mild traumatic brain injury (blast mTBI); assay: Thermal Gradient Ring (TGR) assessment of heat/pain sensitivity after repetitive blast mTBI; assay type: in vivo, C57Bl/6 mice; conditions: after one month of treatment, 3.0 mg/kg
[6] = intra-nasal administration, similar doses; cited from earlier work
[7] = Solid-state stability of Form A; assay type: physicochemical
Experimental: As described therein, polymorphic studies were conducted with benzgalantamine utilizing a variety of solvents and crystallization conditions (Table 5 of WO 2022/150917) and subsequent XRPD analyses. Seven unique crystalline materials were observed and isolated, and were designated as Forms A, B, C, D and Materials E, F and G (FIG. 6 of WO 2022/150917). Amorphous material was also observed. Form A of benzgalantamine is an anhydrous crystalline material with concomitant melt/decomposition onset near 117 °C. […] Based upon WO 2022/150917, anhydrous Form A, stored under appropriate temperature and humidity conditions to maintain its Form and stability, appears best suited of the various benzgalantamine forms to be used in formulation and manufacture of drug products.
As used herein, the term stable may relate to either chemical stability or to polymorph stability. Polymorph stability refers to the likelihood of a polymorph form remaining in its specific crystalline state under suitable storage conditions. For example, a stable polymorph form will maintain at least about 95% by weight, preferably at least about 98% by weight, and more preferably at least about 99% by weight or more of the crystalline form, in other words the form remains unchanged after storage under the indicated conditions for the indicated time.

[8] = 43% RH (RT); from WO 2022/150917; cited from earlier work
pre-clinical models = conditions: cited from earlier work
[9] = system: microglial phagocytic activity; conditions: cited from earlier work
[10] = nausea, vomiting and diarrhea; Cochrane review 2006; cited from earlier work

COc1ccc2c3c1O[C@H]1C[C@@H](OC(=O)c4ccccc4)C=C[C@@]31CCN(C)C2 [ALPHA-1062 Gluconate, (4aS,6R,8aS)-4a,5,6,9,10,11,12-hexahydro-3-methoxy-11-methyl-6H-benzofuro[3a,3,2-ef][2]benzazepin-6-benzoate-gluconate salt]
CFU/mL (E. coli ATCC 8739; Day 14): <10 CFU/mL
Log Reduction (E. coli ATCC 8739; Day 14): 5.0 Log
CFU/mL (E. coli ATCC 8739; Day 28): <10 CFU/mL
Log Reduction (E. coli ATCC 8739; Day 28): 5.0 Log
CFU/mL (P. aeruginosa ATCC 9027; Day 14): <10 CFU/mL
Log Reduction (P. aeruginosa ATCC 9027; Day 14): 4.5 Log
CFU/mL (P. aeruginosa ATCC 9027; Day 28): <10 CFU/mL
Log Reduction (P. aeruginosa ATCC 9027; Day 28): 4.5 Log
CFU/mL (S. aureus ATCC 6538; Day 14): <10 CFU/mL
Log Reduction (S. aureus ATCC 6538; Day 14): 4.6 Log
CFU/mL (S. aureus ATCC 6538; Day 28): <10 CFU/mL
Log Reduction (S. aureus ATCC 6538; Day 28): 4.6 Log
CFU/mL (C. albicans ATCC 10231; Day 14): <10 CFU/mL
Log Reduction (C. albicans ATCC 10231; Day 14): 4.8 Log
CFU/mL (C. albicans ATCC 10231; Day 28): <10 CFU/mL
Log Reduction (C. albicans ATCC 10231; Day 28): 4.8 Log
CFU/mL ([1]; Day 14): 1.6 × 10^2 CFU/mL
Log Reduction ([1]; Day 14): 3.1 Log
CFU/mL ([1]; Day 28): 1.5 × 10^2 CFU/mL
Log Reduction ([1]; Day 28): 3.1 Log
anti-microbial effect [2]: strong anti-microbial effect against all 5 organisms tested in the USP 51

COc1cc2c(cc1OC)C(=O)C(CC1CCN(Cc3ccccc3)CC1)C2 (centres unmarked) [donepezil]
adverse effects [3]: about half of all patients experienced disturbing adverse effects
TBI-related symptoms [3]: subjective improvement of TBI-related symptoms

COc1ccc2c3c1O[C@H]1C[C@@H](OC(=O)c4ccccc4)C=C[C@@]31CCN(C)C2 [ALPHA-1062, (4aS,6R,8aS)-5,6,9,10,11,12-hexahydro-3-methoxy-11-methyl-4aH-[1]benzofuro[3a,3,2-ef][2]benzazepin-6-ol benzoate]
overt toxicity vs vehicle animals ([4]; 35 days, 4.5 mg/kg IN twice daily): did not show overt toxicity
body weight change vs day zero ([4]; days 1-7 (D1-7)): significant body weight loss (p<0.05)
body weight change vs day zero ([4]; days 29-35 (D29-35)): significant body weight gain
body weight vs vehicle treated or untreated animals ([4]; each time point D0-D35, 4.5 mg/kg IN twice daily, FIG. 10): no significant alterations in body weight compared to vehicle treated or untreated animals
persistence of structural/functional benefit following removal of drug treatment [5]: at least 2 months
bioavailability in the brain vs oral galantamine [6]: higher bioavailability in the brain, than similar doses of oral galantamine

CCN(C)C(=O)Oc1cccc([C@H](C)N(C)C)c1 [rivastigmine]
adverse effects [3]: about half of all patients experienced disturbing adverse effects
TBI-related symptoms [3]: subjective improvement of TBI-related symptoms

COc1ccc2c3c1O[C@H]1C[C@@H](OC(=O)c4ccccc4)C=C[C@@]31CCN(C)C2.O=C(O)C(O)C(O)C(O)C(O)CO [Form A]
chemical stability ([7]; appropriate storage conditions): good chemical stability
polymorph stability on storage ([7]; room temperature, at or under about 43% RH or less than 0.12 aw, multiple months): good stability
duration for which Form A was sustained [8]: up to 5 days
kinetic stability in the solid state [8]: kinetically stable in the solid state

COc1ccc2c3c1O[C@H]1C[C@@H](O)C=C[C@@]31CCN(C)C2 [galantamine]
pre-clinical effects (pre-clinical models; active metabolite of benzgalantamine): increase cholinergic activation, reduce neuroinflammation, improve blood-brain barrier function, activate cell survival signalling pathways as well as increase neurogenesis
glutamate and beta-amyloid toxicity (pre-clinical models): decrease both glutamate and beta-amyloid toxicity
microglial phagocytic activity [9]: activation of microglial phagocytic activity
adverse effects [3]: about half of all patients experienced disturbing adverse effects
TBI-related symptoms [3]: subjective improvement of TBI-related symptoms
gastro-intestinal (GI) side effects [10]: clinically significant level of mechanism-based gastro-intestinal (GI) side effects
